We go through 15 compounds from PubChem BioAssay (NCI).

Some test systems named below: KM12 colon; TK-10 renal; NCI-H23 lung; OVCAR-5 ovarian; NCI-H226 lung; HCC-2998 colon; U251 CNS; RPMI-8226 leukemia; HT29 colon; M14 melanoma.
Holding throughout (assay): growth of human tumour cells (NCI), 48 h

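Five concentrations, 48 hours, 96-well plates. GI50: concentration for 50% inhibition of growth. At the TGI there is no net growth.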

Turning to `COC(=O)C1CC(C(=O)OC)c2nc3cc(C)ccc3nc21` (configuration not stated), the TGI in the experiment with KM12 colon, in the experiment on TK-10 renal, in the experiment with NCI-H23 lung, in the experiment with OVCAR-5 ovarian, with NCI-H226 lung and in the experiment on HCC-2998 colon was over 100 µM in each case. The TGI with U251 CNS, in the experiment on RPMI-8226 leukemia, in the experiment with HT29 colon and in the experiment with M14 melanoma was over 100 µM in each case.

On to `COc1cc(Nc2nc3cc(N)cc(N)c3nc2-c2ccccc2)cc(OC)c1`, for which the GI50 was 13.3 µM with KM12 colon; 13.1 µM with TK-10 renal; 27.5 µM with NCI-H23 lung; 26.6 µM with OVCAR-5 ovarian; 2.9 µM in the experiment with NCI-H226 lung; 24.3 µM in the experiment on HCC-2998 colon. Further, the GI50 in the experiment on U251 CNS is 22.9 µM; in the experiment on RPMI-8226 leukemia it was 1.27 µM; in the experiment with HT29 colon it was 27.3 µM; with M14 melanoma, 14.2 µM. Further, the TGI in the experiment with KM12 colon is 31.2 µM; in the experiment with TK-10 renal, 42.7 µM; with NCI-H23 lung, over 100 µM; with OVCAR-5 ovarian, over 100 µM; in the experiment with NCI-H226 lung, 32.9 µM; in the experiment on HCC-2998 colon, over 100 µM. Besides, the TGI in the experiment with U251 CNS is over 100 µM; in the experiment with RPMI-8226 leukemia, 10.4 µM; with HT29 colon, over 100 µM; in the experiment with M14 melanoma, 34.8 µM.

`O=C(O)c1cc2ccccc2c(O)c1O`: the TGI with KM12 colon was 30.4 µM; in the experiment with TK-10 renal, 40.7 µM; with NCI-H23 lung it was 22.5 µM; with OVCAR-5 ovarian, 32.1 µM; in the experiment with NCI-H226 lung, 42.7 µM; with HCC-2998 colon, 35.8 µM. Moreover, the TGI in the experiment with U251 CNS is 31 µM; in the experiment on RPMI-8226 leukemia, over 76.1 µM; with HT29 colon, 49.3 µM; with M14 melanoma, 16.3 µM.

For `COC(=O)C(CCS(=O)(=O)CC(=O)C(=O)Nc1cccc(C(C)=O)c1)C(=O)OC`, the TGI in the experiment on KM12 colon, in the experiment on TK-10 renal, in the experiment with NCI-H23 lung, in the experiment with OVCAR-5 ovarian, in the experiment on NCI-H226 lung and in the experiment on HCC-2998 colon was over 100 µM in each case. In addition, the TGI in the experiment on U251 CNS was over 100 µM; in the experiment with RPMI-8226 leukemia, over 69.4 µM; in the experiment on HT29 colon it was over 100 µM; with M14 melanoma, over 100 µM.

With `CC(=O)OC1C(=O)C(O)C(C)OC1O[C@@H]1C[C@@]2(C)[C@@H]3CC=C4[C@@H](C[C@H](O)C(=O)C4(C)C)[C@]3(C)C(=O)C[C@]2(C)[C@H]1[C@@](C)(O)C(=O)/C=C/C(C)(C)O` (some centres not stated), the TGI with KM12 colon was over 10 µM; in the experiment on TK-10 renal, 3.44 µM; with NCI-H23 lung, over 10 µM; with OVCAR-5 ovarian it was over 10 µM; in the experiment with NCI-H226 lung, 2 µM; in the experiment on HCC-2998 colon, 8.32 µM. The TGI in the experiment with U251 CNS is 5.41 µM; in the experiment with RPMI-8226 leukemia, 8.04 µM; with HT29 colon it was over 10 µM; in the experiment on M14 melanoma, over 10 µM.

In the case of `C=C1[C@@H](C)[C@H]2[C@H](Cc3ccccc3)NC(=O)[C@]23OC(=O)/C=C/[C@H](O)CCC[C@@H](C)C/C=C/[C@H]3[C@@H]1O`, the TGI in the experiment on KM12 colon is over 100 µM; in the experiment on TK-10 renal it was 47 µM; in the experiment on NCI-H23 lung, 89.7 µM; in the experiment with OVCAR-5 ovarian, over 100 µM; in the experiment with NCI-H226 lung, 23.4 µM; in the experiment with HCC-2998 colon it was over 100 µM. Also, the TGI in the experiment with U251 CNS is 57.8 µM; in the experiment on RPMI-8226 leukemia, 39.6 µM; in the experiment on HT29 colon, over 100 µM; in the experiment with M14 melanoma, over 100 µM.

Take `Clc1ccc(Cl)c2[s+]snc12`: the TGI in the experiment with KM12 colon, with TK-10 renal, in the experiment with NCI-H23 lung, in the experiment with OVCAR-5 ovarian, with NCI-H226 lung and in the experiment with HCC-2998 colon was over 100 µM each time. For the same compound, the TGI was over 100 µM with U251 CNS, over 77.6 µM in the experiment with RPMI-8226 leukemia, 68.3 µM in the experiment on HT29 colon and over 100 µM in the experiment with M14 melanoma.

For the compound `C(=N\Nc1ccccn1)/c1ccccn1`, the GI50 with KM12 colon was 0.47 µM; with NCI-H23 lung it was 0.503 µM; in the experiment on OVCAR-5 ovarian, 0.588 µM; in the experiment on NCI-H226 lung it was 0.356 µM; in the experiment with HCC-2998 colon it was 0.272 µM; with U251 CNS, 0.445 µM. Besides, the GI50 in the experiment on RPMI-8226 leukemia is 6.17 µM; in the experiment with HT29 colon, 0.563 µM; in the experiment with M14 melanoma, 0.313 µM. For the same compound, the TGI in the experiment on KM12 colon was over 100 µM; in the experiment with TK-10 renal it was over 100 µM; in the experiment with NCI-H23 lung, over 100 µM; in the experiment with OVCAR-5 ovarian, over 100 µM; with HCC-2998 colon, 97.3 µM; in the experiment on U251 CNS, over 100 µM. Also, the TGI in the experiment on RPMI-8226 leukemia is over 100 µM; with HT29 colon it was over 100 µM; in the experiment with M14 melanoma, 57.2 µM.

On to `CCCCn1c2cc(OCc3cn(-c4ccc(Cl)cc4)nn3)ccc2c2ccnc(C)c21`, for which the GI50 in the experiment with KM12 colon was 10.1 µM; with TK-10 renal it was 7.55 µM; with NCI-H23 lung, 7.23 µM; in the experiment on OVCAR-5 ovarian, 6.55 µM; with NCI-H226 lung, 5.51 µM; with HCC-2998 colon, 9.58 µM. Also, the GI50 in the experiment on U251 CNS was 5.66 µM; in the experiment with RPMI-8226 leukemia it was 3.43 µM; in the experiment on HT29 colon it was 6.25 µM; with M14 melanoma it was 5.82 µM. The TGI was over 33.3 µM with KM12 colon; 14.1 µM in the experiment with TK-10 renal; 26.6 µM in the experiment on NCI-H23 lung; 21.5 µM in the experiment with OVCAR-5 ovarian; 14.1 µM in the experiment with NCI-H226 lung; 30.4 µM in the experiment with HCC-2998 colon. The TGI in the experiment with U251 CNS is 12.6 µM; in the experiment on RPMI-8226 leukemia, 11.9 µM; in the experiment with HT29 colon it was over 33.3 µM; in the experiment on M14 melanoma, 16.4 µM.

For `O=Cc1c(-c2cc(O)ccc2O)nc2sccn12`, the GI50 with KM12 colon was 5.05 µM; in the experiment with TK-10 renal, 11 µM; in the experiment with NCI-H23 lung it was 20.9 µM; in the experiment on OVCAR-5 ovarian it was 23.1 µM; in the experiment on NCI-H226 lung, 14.7 µM; in the experiment on HCC-2998 colon, 17.3 µM. The GI50 with U251 CNS is 18.8 µM; with RPMI-8226 leukemia it was 1.76 µM; in the experiment on HT29 colon, 35.1 µM; in the experiment with M14 melanoma it was 13.8 µM. Besides, the TGI is 20.5 µM in the experiment with KM12 colon; 23.6 µM in the experiment on TK-10 renal; 51.4 µM in the experiment on NCI-H23 lung; 74.4 µM in the experiment on OVCAR-5 ovarian; 37.7 µM with NCI-H226 lung; 33.6 µM in the experiment with HCC-2998 colon. Further, the TGI with U251 CNS is 47 µM; with RPMI-8226 leukemia, 8.09 µM; in the experiment with HT29 colon, over 100 µM; with M14 melanoma, 30.1 µM.

As to `CSc1nc(NC2OCC(OC(C)=O)C(OC(C)=O)C2OC(C)=O)c2c(OC(C)=O)c(C)c(=O)oc2n1` (configuration not stated), the TGI in the experiment on KM12 colon, in the experiment with TK-10 renal, with NCI-H23 lung, in the experiment with OVCAR-5 ovarian, in the experiment with NCI-H226 lung and in the experiment on HCC-2998 colon was over 100 µM throughout. Moreover, the TGI with U251 CNS, in the experiment on RPMI-8226 leukemia, in the experiment on HT29 colon and in the experiment with M14 melanoma was over 100 µM each time.

Regarding `CC(=O)Nc1ccc(C(=O)N2N=C(C)/C(=C/c3ccccc3O)C2=O)cc1`, the TGI in the experiment on KM12 colon, in the experiment on TK-10 renal, in the experiment with NCI-H23 lung, in the experiment on OVCAR-5 ovarian, in the experiment with NCI-H226 lung and in the experiment on HCC-2998 colon was over 100 µM in each case. In addition, the TGI with RPMI-8226 leukemia, in the experiment on HT29 colon and in the experiment on M14 melanoma was over 100 µM each time.

Take `Cc1cn(C2CC(F)C(CO)O2)c(=O)[nH]c1=O` (configuration not stated): the GI50 in the experiment with KM12 colon, in the experiment with TK-10 renal, in the experiment on NCI-H23 lung, in the experiment with OVCAR-5 ovarian, with NCI-H226 lung and in the experiment with HCC-2998 colon was over 100 µM throughout. For the same compound, the GI50 in the experiment on RPMI-8226 leukemia is over 100 µM; in the experiment on HT29 colon it was 98.8 µM; with M14 melanoma, over 100 µM. Also, the TGI in the experiment on KM12 colon, with TK-10 renal, with NCI-H23 lung, with OVCAR-5 ovarian, in the experiment with NCI-H226 lung and with HCC-2998 colon was over 100 µM each time. Further, the TGI in the experiment on RPMI-8226 leukemia, with HT29 colon and with M14 melanoma was over 100 µM each time.

Take `CCN1C2=NC(=O)N(C)C(=O)C2(Cl)C(C(SC)S(=O)(=O)c2ccc(C)cc2)c2ccccc21` (configuration not stated): the TGI in the experiment with TK-10 renal was over 100 µM; in the experiment on NCI-H23 lung it was 50.4 µM; in the experiment with OVCAR-5 ovarian, over 100 µM; with NCI-H226 lung, over 100 µM; in the experiment on HCC-2998 colon it was over 100 µM; in the experiment with U251 CNS, over 100 µM. Moreover, the TGI in the experiment with RPMI-8226 leukemia is 41.6 µM; with HT29 colon, over 100 µM; in the experiment on M14 melanoma, 52.5 µM.

With `OCCCCC#Cc1ccccc1C#Cc1ccccc1`, the GI50 with TK-10 renal was 13.2 µM; in the experiment with NCI-H23 lung, 19.8 µM; in the experiment with OVCAR-5 ovarian, 17.7 µM; with NCI-H226 lung, 16.2 µM; with HCC-2998 colon, 16.8 µM; with U251 CNS it was 11.5 µM. Moreover, the GI50 in the experiment with RPMI-8226 leukemia was 15.9 µM; in the experiment with HT29 colon it was 13.2 µM; with M14 melanoma, 10.1 µM. In addition, the TGI with TK-10 renal amounted to 26.3 µM; in the experiment with NCI-H23 lung, 51.4 µM; with OVCAR-5 ovarian it was 43.6 µM; in the experiment on NCI-H226 lung, 35.3 µM; in the experiment on HCC-2998 colon it was 43.6 µM; in the experiment on U251 CNS, 23.8 µM. In addition, the TGI with RPMI-8226 leukemia is 37.7 µM; in the experiment with HT29 colon, over 100 µM; in the experiment on M14 melanoma, 22.9 µM.
